Test results reported in patent US20080241870A1, “Composition For Creating an Artificial Bone Marrow Like Environment and Use Thereof” (NATIONAL CENTRE FOR CELL SCINECES, priority 2005, published 2008).

System: mesenchymal cells (ABME) with MNC
Assay: quantitative hematopoietic colony formation assay for ABME (HCFA-ABME): MNC with hematomodulator-contacted mesenchymal cells
Assay type: cell-based, human
From the text: As described above, the medium for blood cell formation employed may be IMDM with 20% serum and supplemented with interleukins such as IL-lbeta, IL-3, and IL-6, stem cell factor, lineage specific growth factors such as erythropoietin and GM-CSF, G-CSF; and methyl cellulose to the extent of 0.8%, the culture is maintained for 12-14 days under the culture conditions whereby blood cell colonies grow well or form colonies and clearly the growth is visible/distinguishable for further analysis and use. An assay designed in a similar manner to assess quantitative nature of ABME function is referred hereafter as ‘quantitative hematopoietic colony formation assay for ABME (HCFA-ABME)’.
Several experiments were conducted to determine that mesenchymal cells exert direct influence on SPC cell-fate. In one set of experiments, mesenchymal cells were cultured separately and nearly 50,000 of them were exposed to a typical HCFA medium comprising 0.8% methyl cellulose in IMDM and 20-30% serum along with excess amounts of various purified and human specific cytokines and hematopoietic colony stimulating growth factors (from Stem cell Technologies, […], Canada). More specifically, the quantities of hematopoietic growth factors used routinely in HCFA were, 2 International Units per milliliter (2 I.U.ml^−1) of Erythropietin (EPO), 50 nanogram per milliliter (50 ng.ml^−1) of Stem Cell Factor (SCF) and 20 nanogram per milliliter (20 ng/ml^−1) each of Granulocyte-Macrophage-Colony Stimulating Factor (GM-CSF), Granulocyte-Colony Stimulating Factor (G-CSF), Interleukin-1 beta (IL-1β), Interleukin-3 (IL-3) and Interleukin-6 (IL-6) {all growth factors and cytokines are from Stem cell Technologies, Vancouver, Canada,}.
In another set of experiments, 50,000 of the same mesenchymal cells were first mixed with nearly 100,000 MNC, held at 37° C. for at least 30 minutes and were processed for colony formation assays. In several experiments, a consistent improvement in the number and cellularity of the hematopoietic colonies was seen when both these two cell types were mixed compared to a reference where only the cells of MNC were used. The increase was ranging from 1.5 to 10-fold. Thus, the enhancement in colony formation obtained with the use of only mesenchymal cells was highly variable and unpredictable among samples. The fact that hematopoietic colonies formed in increased numbers and cellularity only when MNC and mesenchymal cells were processed together is evidence of a new environment created by the mesenchymal cells in which the SPC present in the MNC were more productive. This increase results in activation of the pre-existing but quiescent SPC, formation of new SPC due to self-renewal, and a combination of both factors.
In order to create ABME, the mesenchymal cells were covered with the contacting medium comprising hematomodulators contained in IMDM with 20% human serum or fetal bovine serum for a desirable period (range 8-24 hours) and removed. The contacted cells were then washed 2 times using the contacting medium (IMDM +20% FCS) without hematomodulators and used as such or after harvesting the mesenchymal cells, which now represent the composition of in vitro ABME. Optionally, ABME cells can be configured on supports that will distribute them in two or more dimensions for better results. A requisite number of MNC/SPC and cells of the ABME are taken and kept together for a suitable duration (range 0.5 to 6 hours) after which they were processed for in vitro hematopoietic colony formation assays or hematopoiesis.
Thus, the inventors undertook 4 sets of experiments: (a) wherein mononuclear cells were exposed to mesenchymal cells without any treatment; (b) wherein MNC were exposed to mesenchymal cells contacted with a biological agent [TGFβ1] […]

## HumanTransforming Growth Factor beta1 [TGFβ1]
1-25 nano gram.ml^-1, mesenchymal cells contacted 8-24 hours
  efficiency of ABME created: equally efficient ABME
MNC exposed to mesenchymal cells contacted with the agent, compared with (A) untreated mesenchymal cells, FIG. 1
  blood cell colonies formed (number, cellularity): greater in number and of higher cellularity than (A)
Lineage specific colony formation assay, FIG. 3A, vs control without biological agent
  colony formation along lineages GEMM, BFU-E and GM: uniformly stimulated
Used separately
  potency in creating ABME from mesenchymal cells: nearly equipotent
